Source: ChEMBL document CHEMBL3272135, “Quantitative relationships between steroid structure and binding to putative progesterone receptors” (J Med Chem, 1977)

Columns and labels:
[1] = target: T1, Progesterone receptor (Homo sapiens) (UniProt P06401)
T1 sequence (whole entry): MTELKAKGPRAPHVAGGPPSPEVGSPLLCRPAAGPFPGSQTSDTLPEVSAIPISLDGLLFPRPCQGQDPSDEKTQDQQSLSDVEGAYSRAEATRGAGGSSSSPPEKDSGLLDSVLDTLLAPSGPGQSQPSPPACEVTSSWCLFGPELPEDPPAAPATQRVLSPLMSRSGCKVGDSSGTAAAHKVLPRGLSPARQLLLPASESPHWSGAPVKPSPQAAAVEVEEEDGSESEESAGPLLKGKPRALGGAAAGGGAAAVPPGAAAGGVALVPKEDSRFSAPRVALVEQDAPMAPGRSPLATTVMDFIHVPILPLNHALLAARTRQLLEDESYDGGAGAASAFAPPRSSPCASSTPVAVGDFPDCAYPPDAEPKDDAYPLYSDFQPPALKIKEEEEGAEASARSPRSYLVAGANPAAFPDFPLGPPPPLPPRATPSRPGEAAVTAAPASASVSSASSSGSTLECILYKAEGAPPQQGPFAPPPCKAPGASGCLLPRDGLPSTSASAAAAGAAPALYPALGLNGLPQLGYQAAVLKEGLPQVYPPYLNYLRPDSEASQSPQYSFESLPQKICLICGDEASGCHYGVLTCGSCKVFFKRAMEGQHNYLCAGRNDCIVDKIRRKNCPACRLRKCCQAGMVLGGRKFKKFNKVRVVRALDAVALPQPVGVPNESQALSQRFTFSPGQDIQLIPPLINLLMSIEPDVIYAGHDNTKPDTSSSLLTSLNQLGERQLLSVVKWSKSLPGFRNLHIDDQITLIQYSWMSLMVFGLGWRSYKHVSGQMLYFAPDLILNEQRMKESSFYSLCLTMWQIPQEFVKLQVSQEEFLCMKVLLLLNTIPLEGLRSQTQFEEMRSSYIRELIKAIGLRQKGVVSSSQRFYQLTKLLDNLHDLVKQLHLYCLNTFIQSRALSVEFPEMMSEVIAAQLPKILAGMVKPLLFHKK

[2] = target: T2, Progesterone receptor (Oryctolagus cuniculus) (UniProt P06186); test: Relative binding affinity to rabbit progesterone receptor
T2 sequence (whole entry): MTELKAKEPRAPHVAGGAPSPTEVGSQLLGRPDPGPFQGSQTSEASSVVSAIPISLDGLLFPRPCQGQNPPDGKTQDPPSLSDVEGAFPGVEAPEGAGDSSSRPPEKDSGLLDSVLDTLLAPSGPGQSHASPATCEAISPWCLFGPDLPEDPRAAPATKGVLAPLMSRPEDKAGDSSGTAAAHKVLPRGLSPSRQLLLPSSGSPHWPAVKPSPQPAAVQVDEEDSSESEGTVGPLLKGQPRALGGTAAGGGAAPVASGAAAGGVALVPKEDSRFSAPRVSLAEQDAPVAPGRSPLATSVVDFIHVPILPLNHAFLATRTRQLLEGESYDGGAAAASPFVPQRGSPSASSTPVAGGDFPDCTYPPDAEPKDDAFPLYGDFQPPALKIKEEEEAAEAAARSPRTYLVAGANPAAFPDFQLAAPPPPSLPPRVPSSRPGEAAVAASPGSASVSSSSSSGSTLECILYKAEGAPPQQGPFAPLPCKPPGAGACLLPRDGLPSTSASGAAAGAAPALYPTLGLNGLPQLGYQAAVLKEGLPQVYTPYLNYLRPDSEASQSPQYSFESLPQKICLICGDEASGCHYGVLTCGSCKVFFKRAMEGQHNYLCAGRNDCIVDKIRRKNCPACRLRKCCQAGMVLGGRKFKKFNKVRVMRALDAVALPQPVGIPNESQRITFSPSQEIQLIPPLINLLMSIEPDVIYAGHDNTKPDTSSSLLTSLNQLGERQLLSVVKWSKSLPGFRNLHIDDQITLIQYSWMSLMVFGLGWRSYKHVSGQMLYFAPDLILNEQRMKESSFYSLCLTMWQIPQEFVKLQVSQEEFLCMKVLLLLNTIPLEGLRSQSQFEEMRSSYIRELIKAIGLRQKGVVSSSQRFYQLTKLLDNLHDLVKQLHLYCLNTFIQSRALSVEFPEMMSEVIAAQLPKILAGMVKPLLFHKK

Cavia porcellus = species on record: Cavia porcellus; test: Relative binding affinity to guinea pig progesterone receptor
[3] = target: T3, Progesterone receptor (Ovis aries) (UniProt Q28590); test: Relative binding affinity to sheep progesterone receptor
T3 sequence (whole entry): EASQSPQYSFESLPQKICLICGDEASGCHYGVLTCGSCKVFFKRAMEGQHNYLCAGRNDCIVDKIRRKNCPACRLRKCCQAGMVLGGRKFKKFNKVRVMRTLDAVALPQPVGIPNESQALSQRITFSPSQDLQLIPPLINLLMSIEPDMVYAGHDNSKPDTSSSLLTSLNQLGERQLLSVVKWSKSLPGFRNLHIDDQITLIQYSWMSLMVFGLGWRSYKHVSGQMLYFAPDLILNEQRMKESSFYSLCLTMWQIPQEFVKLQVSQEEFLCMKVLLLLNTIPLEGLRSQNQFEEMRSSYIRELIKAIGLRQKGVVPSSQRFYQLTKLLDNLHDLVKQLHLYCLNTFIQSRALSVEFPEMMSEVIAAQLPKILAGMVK

## C[C@]1(O)CC[C@H]2[C@@H]3CCC4=CCCC[C@@H]4[C@H]3CC[C@@]21C
[1]
  log(RBA): 0.78
[2]
  log(RBA): 1.3
Cavia porcellus
  log(RBA): 0.3
[3]
  log(RBA): 0.778

## C[C@@H](O)[C@H]1CC[C@H]2[C@@H]3CCC4=CC(=O)CC[C@]4(C)[C@H]3CC[C@]12C
[1]
  log(RBA): 0.3
[2]
  log(RBA): 1.01
Cavia porcellus
  log(RBA): 0
[3]
  log(RBA): 0

## CC(=O)[C@H]1CC[C@H]2[C@@H]3CC[C@H]4CC(=O)CC[C@]4(C)[C@H]3CC[C@]12C
[1]
  log(RBA): 1.48
[2]
  log(RBA): 1.74
Cavia porcellus
  log(RBA): 1.4
[3]
  log(RBA): 1.48

## CC(=O)[C@H]1CC[C@H]2[C@@H]3CCC4=CC(=O)CC[C@]4(C)[C@H]3CC[C@]12C
[1]
  log(RBA): 2
[2]
  log(RBA): 2
Cavia porcellus
  log(RBA): 2
[3]
  log(RBA): 2

## CC(=O)[C@H]1CC[C@H]2[C@@H]3CCC4=CC(=O)C=C[C@]4(C)[C@H]3CC[C@]12C
[1]
  log(RBA): 1.48
[2]
  log(RBA): 1.3
Cavia porcellus
  log(RBA): 1.64
[3]
  log(RBA): 1.2

## C#C[C@]1(O)CC[C@H]2[C@H]3[C@H](CC[C@@]21C)[C@H]1CCCC=C1C[C@H]3C
[1]
  log(RBA): 0.3
[2]
  log(RBA): 0.954
Cavia porcellus
  log(RBA): -0.7
[3]
  log(RBA): 0.301

## C[C@]12CCC(=O)C=C1CC[C@@H]1[C@@H]2[C@@H](O)C[C@@]2(C)[C@H]1CC[C@]2(O)C(=O)CO
[1]
  log(RBA): -1
[2]
  log(RBA): -1
Cavia porcellus
  log(RBA): -1
[3]
  log(RBA): -1.3

## CC[C@]12CC[C@H]3[C@@H](CCC4=CC(=O)CC[C@@]43C)[C@@H]1CC[C@@H]2C(C)=O
[1]
  log(RBA): 1.43
[2]
  log(RBA): 1.5
Cavia porcellus
  log(RBA): 1.63
[3]
  log(RBA): 1.04

## CC(=O)[C@H]1CC[C@H]2[C@@H]3CCC4=CC(=O)CC[C@]4(C)[C@H]3[C@H](O)C[C@]12C
[1]
  log(RBA): 0.48
[2]
  log(RBA): 0.301
Cavia porcellus
  log(RBA): -0.097
[3]
  log(RBA): -0.15

## CC(=O)[C@H]1CC[C@H]2[C@@H]3CC[C@@H]4CC(=O)CC[C@]4(C)[C@H]3CC[C@]12C
[1]
  log(RBA): 1.08
[2]
  log(RBA): 1.08
Cavia porcellus
  log(RBA): 0.7
[3]
  log(RBA): 0.6

## CC[C@@H]1C[C@H]2[C@@H]3CCC4=CC(=O)CC[C@@H]4[C@H]3CC[C@]2(C)[C@H]1C(=O)CF
[1]
  log(RBA): 2.23
[2]
  log(RBA): 2.36
Cavia porcellus
  log(RBA): 1.6
[3]
  log(RBA): 2.08

## C[C@]12CC[C@H]3[C@@H](CCC4=CC(=O)CC[C@@H]43)[C@@H]1CC[C@@H]2O
[1]
  log(RBA): 1.14
[2]
  log(RBA): 1
Cavia porcellus
  log(RBA): 1.6
[3]
  log(RBA): 1

## CC(=O)[C@@]12O[C@@H]1C[C@H]1[C@@H]3CCC4=CC(=O)CC[C@]4(C)[C@H]3CC[C@@]12C
[1]
  log(RBA): 0
[2]
  log(RBA): -0.097
Cavia porcellus
  log(RBA): -0.046
[3]
  log(RBA): -0.52

## C#C[C@]1(O)CC[C@H]2[C@@H]3CC[C@@H]4C[C@@H](O)CC[C@@H]4[C@H]3CC[C@@]21C
[1]
  log(RBA): -0.52
[2]
  log(RBA): -1
Cavia porcellus
  log(RBA): -1.09
[3]
  log(RBA): -0.7

## C#C[C@]1(O)CC[C@H]2[C@@H]3CCC4=C(CCC(=O)C4)[C@H]3CC[C@@]21C
[1]
  log(RBA): 1.34
[2]
  log(RBA): 1.56
Cavia porcellus
  log(RBA): 3
[3]
  log(RBA): 0.845

## C[C@]12C[C@H](O)[C@H]3[C@@H](CCC4=CC(=O)CC[C@@]43C)[C@@H]1CC[C@@H]2C(=O)CO
[1]
  log(RBA): 0.3
[2]
  log(RBA): 0.02
Cavia porcellus
  log(RBA): 0.447
[3]
  log(RBA): 0

## CC[C@@H]1C[C@H]2[C@@H]3C=CC4=CC(=O)CC[C@@H]4[C@H]3CC[C@]2(C)[C@H]1C(=O)CF
[1]
  log(RBA): 2.15
[2]
  log(RBA): 2.24
Cavia porcellus
  log(RBA): 1.17
[3]
  log(RBA): 2.13

## CC[C@@H]1C[C@H]2[C@@H]3CCC4=CC(=O)CC[C@@H]4[C@H]3CC[C@]2(C)[C@H]1C(=O)CO
[1]
  log(RBA): 2.16
[2]
  log(RBA): 2.44
Cavia porcellus
  log(RBA): 1.4
[3]
  log(RBA): 1.98

## C#C[C@]1(O)CC[C@H]2[C@@H]3CCC4=CCCC[C@@H]4[C@H]3CC[C@@]21C
[1]
  log(RBA): 0.7
[2]
  log(RBA): 1.11
Cavia porcellus
  log(RBA): -0.52
[3]
  log(RBA): 0.602

## C#C[C@]1(O)CC[C@H]2[C@@H]3CC=C4CCCC[C@@H]4[C@H]3CC[C@@]21C
[1]
  log(RBA): -1
[2]
  log(RBA): -0.523
Cavia porcellus
  log(RBA): -1.15
[3]
  log(RBA): -0.7

## CC(=O)[C@H]1CC[C@H]2[C@@H]3CCC4=CC(=O)CC[C@@H]4[C@H]3CC[C@]12C
[1]
  log(RBA): 2.11
[2]
  log(RBA): 2.41
Cavia porcellus
  log(RBA): 2.06
[3]
  log(RBA): 2.13

## C#C[C@]1(O)CC[C@H]2[C@@H]3CCC4=CC(=O)CC[C@@H]4[C@H]3CC[C@@]21CC
[1]
  log(RBA): 2.22
[2]
  log(RBA): 2.62
Cavia porcellus
  log(RBA): 1.43
[3]
  log(RBA): 2

## CC(=O)OCC(=O)[C@H]1CC[C@H]2[C@@H]3CCC4=CC(=O)CC[C@]4(C)[C@H]3CC[C@]12C
[1]
  log(RBA): 1
[2]
  log(RBA): 1.69
Cavia porcellus
  log(RBA): 1.34
[3]
  log(RBA): 1

## C#C[C@]1(O)CC[C@H]2[C@@H]3[C@H](C)CC4=C(CCC(=O)C4)[C@H]3CC[C@@]21C
[1]
  log(RBA): 0.78
[2]
  log(RBA): 0.903
Cavia porcellus
  log(RBA): -0.4
[3]
  log(RBA): 0.7

## C#C[C@]1(O)CC[C@H]2[C@@H]3CC[C@H]4CC(=O)CC[C@@H]4[C@H]3CC[C@@]21C
[1]
  log(RBA): 1.23
[2]
  log(RBA): 1.23
Cavia porcellus
  log(RBA): 0.3
[3]
  log(RBA): 1
